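All cell lines were grown in 96-well plates and treated with compound for 48 hours. TGI is the concentration that stops growth completely.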
What was measured:
Assay in all cases: NCI tumour cell line growth inhibition, 48 h
[1] = tested on: CCRF-CEM leukemia
[2] = tested on: SK-OV-3 ovarian
[3] = tested on: HCT-116 colon
[4] = tested on: SNB-75 CNS
[5] = tested on: MOLT-4 leukemia
[6] = tested on: K-562 leukemia
[7] = tested on: ACHN renal
[8] = tested on: A549 NSCLC
[9] = tested on: SK-MEL-5 melanoma
[10] = tested on: TK-10 renal

For Cn1c(=O)c2c(nc(NCCCCl)n2CC(=O)O)n(C)c1=O, the TGI [1] was greater than 100 µM, the TGI [2] was greater than 100 µM and the TGI [3] was greater than 100 µM. It also gave a TGI [4] greater than 100 µM, a TGI [5] greater than 100 µM and a TGI [6] greater than 100 µM. It also gave a TGI [7] greater than 100 µM, a TGI [8] greater than 100 µM and a TGI [9] greater than 100 µM. It also gave a TGI [10] greater than 100 µM.
For Cc1cn(C2CC(n3cc(Cn4cc(F)c(=O)[nH]c4=O)nn3)C(CO)O2)c(=O)[nH]c1=O (stereo unspecified), the TGI [1] was greater than 100 µM, the TGI [2] was greater than 100 µM and the TGI [3] was greater than 100 µM. The TGI [4] was greater than 100 µM, the TGI [5] was greater than 100 µM and the TGI [7] was greater than 100 µM. The TGI [8] was greater than 100 µM, the TGI [9] was greater than 100 µM and the TGI [10] was greater than 100 µM.
N=C(N)SCCON1C(=O)c2ccccc2C1=O showed a TGI [1] greater than 100 µM, a TGI [2] greater than 100 µM and a TGI [3] greater than 100 µM. For the same molecule, the TGI [4] was greater than 100 µM, the TGI [5] was greater than 100 µM and the TGI [6] was greater than 100 µM. It also gave a TGI [7] greater than 100 µM, a TGI [8] greater than 100 µM and a TGI [9] greater than 100 µM. It also gave a TGI [10] greater than 100 µM.
Molecule Cn1ccnc1S/C(=C\C=C(C#N)C#N)c1ccc(Cl)cc1 has a TGI [1] greater than 11.2 µM, a TGI [2] of 38.8 µM and a TGI [3] of 1.58 µM. For the same molecule, the TGI [4] was 12.5 µM, the TGI [5] was 6.25 µM and the TGI [6] was 3.41 µM. It also gave a TGI [7] of 2.09 µM, a TGI [8] of 22.6 µM and a TGI [9] of 3.59 µM. For the same molecule, the TGI [10] was 2.81 µM.
CC(=O)O/C=C\OC1CCCC1(c1ccccc1)c1ccccc1 (stereo unspecified) gave a TGI [1] of 5.71 µM, a TGI [2] of 27.6 µM and a TGI [3] of 4.19 µM. The TGI [4] was 11.5 µM, the TGI [5] was 9.07 µM and the TGI [6] was 9.05 µM. The TGI [7] was 4.36 µM, the TGI [8] was 43.8 µM and the TGI [9] was 7.19 µM. For the same molecule, the TGI [10] was 9.33 µM.
With Brc1ccc(N=NN2CCCCC2)cc1 the TGI [1] was 56.9 µM, the TGI [2] was greater than 100 µM and the TGI [3] was greater than 100 µM. It also gave a TGI [4] greater than 100 µM, a TGI [5] of 46.2 µM and a TGI [6] greater than 100 µM. The TGI [7] was greater than 100 µM, the TGI [9] was greater than 100 µM and the TGI [10] was greater than 100 µM.
For Cc1ccc(S(=O)(=O)N/C(=C\C=C\c2ccccc2)C(=O)C(C)(C)C)cc1, the TGI [1] was greater than 100 µM, the TGI [2] was greater than 100 µM and the TGI [3] was greater than 100 µM. It also gave a TGI [4] greater than 100 µM, a TGI [5] greater than 100 µM and a TGI [6] greater than 100 µM. It also gave a TGI [7] greater than 100 µM, a TGI [8] greater than 100 µM and a TGI [9] greater than 100 µM. For the same molecule, the TGI [10] was greater than 100 µM.
CC(C)Oc1c(-c2c(OC(C)C)c(=O)c2=O)c(=O)c1=O was tested, and the TGI [1] was greater than 100 µM, the TGI [2] was greater than 100 µM and the TGI [3] was greater than 51 µM. It also gave a TGI [4] greater than 71.2 µM, a TGI [5] greater than 68.1 µM and a TGI [6] greater than 54.7 µM. It also gave a TGI [7] greater than 100 µM, a TGI [8] greater than 100 µM and a TGI [9] greater than 61.8 µM. The TGI [10] was greater than 100 µM.
CCC(CCCN)Nc1cc(OC)cc2cccnc12 (stereo unspecified) gave a TGI [1] greater than 100 µM, a TGI [2] greater than 100 µM and a TGI [3] greater than 100 µM. It also gave a TGI [4] greater than 100 µM, a TGI [6] greater than 100 µM and a TGI [7] greater than 100 µM. The TGI [8] was greater than 100 µM, the TGI [9] was greater than 100 µM and the TGI [10] was greater than 100 µM.
CCCCCc1cc(OC(=O)c2c(O)cc(OC)cc2CCCCC)cc(O)c1C(=O)O showed a TGI [1] of 47.8 µM, a TGI [2] of 31.5 µM and a TGI [4] of 32.5 µM. For the same molecule, the TGI [5] was 60 µM, the TGI [6] was greater than 100 µM and the TGI [7] was 35.9 µM. The TGI [8] was 35.6 µM, the TGI [9] was 28.5 µM and the TGI [10] was 36.6 µM.
In the case of CC1(C)OC2OC(COC(=O)C=[N+]=[N-])C3OC(C)(C)OC3C2O1 (stereo unspecified), the TGI [1] is reported as greater than 100 µM, the TGI [2] is reported as greater than 100 µM and the TGI [3] is reported as greater than 100 µM. For the same molecule, the TGI [6] was greater than 100 µM, the TGI [7] was greater than 100 µM and the TGI [9] was greater than 100 µM. It also gave a TGI [10] greater than 100 µM.
With O=C(NCCN(CCNC(=O)c1cccc(=O)n1O)CCN(CCNC(=O)c1cccc(=O)n1O)CCNC(=O)c1cccc(=O)n1O)c1cccc(=O)n1O the TGI [1] was greater than 100 µM, the TGI [2] was greater than 100 µM and the TGI [3] was greater than 100 µM. It also gave a TGI [4] greater than 100 µM, a TGI [6] greater than 100 µM and a TGI [7] greater than 100 µM. For the same molecule, the TGI [8] was greater than 100 µM, the TGI [9] was greater than 100 µM and the TGI [10] was greater than 100 µM.
For CN1CC2=C(OC(N)=C(C#N)C2c2cccs2)/C(=C/c2cccs2)C1 (stereo unspecified), the TGI [1] was greater than 29 µM, the TGI [2] was greater than 100 µM and the TGI [3] was greater than 49.3 µM. It also gave a TGI [5] greater than 26.5 µM, a TGI [6] greater than 100 µM and a TGI [7] of 38.7 µM. It also gave a TGI [8] greater than 75.2 µM, a TGI [9] of 14.4 µM and a TGI [10] greater than 100 µM.
For COC(=O)CCCc1ccc2c(c1)CC1(C2)Cc2cc3c(cc2C1)CCCC3, the TGI [2] was greater than 100 µM, the TGI [3] was 15.9 µM and the TGI [5] was 38.9 µM. It also gave a TGI [6] of 52.5 µM, a TGI [7] greater than 100 µM and a TGI [8] of 67.7 µM. It also gave a TGI [9] of 41.2 µM and a TGI [10] greater than 100 µM.
In the case of CSc1nc(NC2CCCC2)c2cc[nH]c2n1, the TGI [1] is reported as greater than 100 µM, the TGI [2] is reported as greater than 100 µM and the TGI [3] is reported as greater than 100 µM. It also gave a TGI [5] greater than 100 µM, a TGI [6] greater than 100 µM and a TGI [7] greater than 100 µM. For the same molecule, the TGI [8] was greater than 100 µM, the TGI [9] was 96.6 µM and the TGI [10] was greater than 100 µM.
Work on Cc1nc2ccc(S(=O)(=O)Nc3ccc(Cl)cc3)cc2c(=O)n1NC(=O)CNc1ccc(Cl)cc1 yielded a TGI [1] greater than 100 µM, a TGI [2] greater than 100 µM and a TGI [3] greater than 100 µM. The TGI [4] was greater than 100 µM, the TGI [5] was greater than 100 µM and the TGI [6] was greater than 100 µM. It also gave a TGI [7] greater than 100 µM, a TGI [8] greater than 100 µM and a TGI [10] greater than 100 µM.
Molecule Cc1ccc(C(=O)OC[C@H]2CC[C@@H](n3cc(N(C)C4CCCCC4)c(=O)[nH]c3=O)O2)cc1 has a TGI [1] of 93 µM, a TGI [2] greater than 100 µM and a TGI [3] of 32.4 µM. For the same molecule, the TGI [5] was greater than 100 µM, the TGI [6] was greater than 100 µM and the TGI [7] was 79.3 µM. For the same molecule, the TGI [8] was greater than 100 µM, the TGI [9] was 40.1 µM and the TGI [10] was 95.2 µM.
